In patent US10174067B2, “Type of cytidine derivative and application thereof” (priority 2014, dated 2019):

Experiment: in vivo
Conditions: female, mouse, in vivo, ip
Method in brief: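 Female SPF ICR mice received a single ip dose in ethanol/Cremophor EL/saline (5:5:90), with dose lowered after deaths and raised otherwise. MTD defined as dose causing no death, no >10% weight loss versus Day 0 and no significant side effects; daily weights and twice-daily clinical observation over 7-14 days.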

| SMILES | MTD at 7 days [mg/kg] |
| --- | --- |
| O=C(COc1nc(Cl)c(Cl)cc1Cl)OC[C@H]1O[C@@H](n2cc(Br)c(NC(=O)OCc3ccccc3)nc2=O)C(F)(F)C1O (some centres unmarked) [Compound G10] | 400 |
| CCCCOC(=O)Nc1nc(=O)n([C@@H]2O[C@H](COC(=O)Cn3cnc([N+](=O)[O-])c3)C(O)C2(F)F)cc1I (some centres unmarked) [Compound G12] | 400 |
